Test results reported in USRE47047E1, “5-[(3,3,3-trifluoro-2-hydroxy-1-arylpropyl)amino]-1H-quinolin-2-ones, a process for their production and their use as anti-inflammatory agents” (ASTRAZENECA AB, priority 2007, dated 2018).

What was measured:
[1] = biological target: T1, glucocorticoid receptor (GR) (Homo sapiens, UniProt P04150); assay: Binding to the glucocorticoid receptor (GR), recombinant receptor in cytosol preparations of Sf9 cells, [3H]-dexamethasone as reference; conditions: reference [3H]-dexamethasone
T1 construct: made in house; host or cells: Sf9 insect cells infected with recombinant baculovirus; cytosol preparation
T1 sequence (P04150 1-777): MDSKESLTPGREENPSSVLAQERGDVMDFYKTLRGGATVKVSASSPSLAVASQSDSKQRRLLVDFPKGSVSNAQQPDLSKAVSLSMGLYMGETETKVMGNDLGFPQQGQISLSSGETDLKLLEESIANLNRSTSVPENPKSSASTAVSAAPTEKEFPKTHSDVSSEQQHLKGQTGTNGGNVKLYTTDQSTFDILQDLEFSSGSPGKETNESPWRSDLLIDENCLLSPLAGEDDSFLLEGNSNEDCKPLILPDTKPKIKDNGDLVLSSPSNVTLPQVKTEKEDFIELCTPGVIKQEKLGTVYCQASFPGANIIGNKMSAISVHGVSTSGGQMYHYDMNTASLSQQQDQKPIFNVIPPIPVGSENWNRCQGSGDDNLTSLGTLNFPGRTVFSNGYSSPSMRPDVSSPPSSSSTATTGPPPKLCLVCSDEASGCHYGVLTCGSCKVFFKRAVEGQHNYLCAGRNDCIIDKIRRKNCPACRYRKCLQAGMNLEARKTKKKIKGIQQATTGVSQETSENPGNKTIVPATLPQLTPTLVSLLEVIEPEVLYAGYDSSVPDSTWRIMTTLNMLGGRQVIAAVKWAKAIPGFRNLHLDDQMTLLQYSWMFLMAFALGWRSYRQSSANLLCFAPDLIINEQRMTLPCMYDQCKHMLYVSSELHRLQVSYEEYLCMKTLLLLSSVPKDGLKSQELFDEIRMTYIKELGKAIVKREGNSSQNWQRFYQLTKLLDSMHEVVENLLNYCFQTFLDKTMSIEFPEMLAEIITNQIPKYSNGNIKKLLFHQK
Source text: The binding of the substances to the glucocorticoid receptor (GR) and other steroid hormone receptors (mineral corticoid receptor (MR), progesterone receptor (PR) and androgen receptor (AR)) is examined with the aid of recombinantly produced receptors. Cytosol preparations of Sf9 cells, which had been infected with recombinant baculoviruses, which code for the GR, are used for the binding studies. In comparison to reference substance [^3H]-dexamethasone, the substances show a high to very high affinity to GR.

[2] = tested on: IL-8 secretion in human monocyte cell line THP-1; assay: Inhibition of LPS-triggered secretion of cytokine IL-8 in THP-1 cells (ELISA); assay type: cell-based; conditions: for IC50: Homo sapiens, THP-1 cells, LPS-triggered, ELISA of supernatant, read-out: IC50(IL8); for efficacy of IL-8 inhibition: in comparison with dexamethasone as reference
Procedure: The concentration of the cytokines was determined in the supernatant by means of commercially available ELISA kits.

SMILES | IC50 [1] [nM] | IC50 [2] [nM] | efficacy of IL-8 inhibition [2] [%]
COc1ccc(C(Nc2cccc3[nH]c(=O)ccc23)C(O)(CSC)C(F)(F)F)c(F)c1 (stereo not drawn) [Example 1, 5-{[1-(2-Fluoro-4-methoxyphenyl)-3,3,3-trifluoro-2-hydroxy-2-([methylsulfanyl]methyl)propyl]amino}-1H-quinolin-2-one] | 6.8 | – | –
COc1ccc(C(Nc2cc(F)cc3[nH]c(=O)ccc23)C(O)(CO)C(F)(F)F)c(Cl)c1F (stereo not drawn) [Example 7, 5-{[1-(2-Chloro-3-fluoro-4-methoxyphenyl)-3,3,3-trifluoro-2-hydroxy-2-(hydroxymethyl)-propyl]amino}-7-fluoro-1H-quinolin-2-one] | 7.1 | 0.44 | 98
COc1c(F)cc(Cl)cc1C(Nc1cc(F)cc2[nH]c(=O)ccc12)C(O)(CO)C(F)(F)F (stereo not drawn) [Example 8, 5-{[1-(5-Chloro-3-fluoro-2-methoxyphenyl)-3,3,3-trifluoro-2-hydroxy-2-(hydroxymethyl)-propyl]amino}-7-fluoro-1H-quinolin-2-one] | – | 3.1 | 80

Continued by falling IC50 [1], values first:

IC50 [1] [nM] | IC50 [2] [nM] | SMILES | efficacy of IL-8 inhibition [2] [%]
5.7 | 0.61 | CCSCC(O)(C(Nc1cc(F)cc2[nH]c(=O)ccc12)c1ccc(OC)c(F)c1Cl)C(F)(F)F (stereo not drawn) [Example 4, 5-{[1-(2-Chloro-3-fluoro-4-methoxyphenyl)-2-([ethylsulfanyl]methyl)-3,3,3-trifluoro-2-hydroxypropyl]amino}-7-fluoro-1H-quinolin-2-one] | 97
3.1 | 0.19 | COCC(O)(C(Nc1cc(F)cc2[nH]c(=O)ccc12)c1ccc(OC)c(F)c1Cl)C(F)(F)F (stereo not drawn) [Example 5, 5-{[1-(2-Chloro-3-fluoro-4-methoxyphenyl)-3,3,3-trifluoro-2-hydroxy-2-(methoxymethyl)propyl]amino}-7-fluoro-1H-quinolin-2-one] | 98
